According to US10829501B2 (BRISTOL-MYERS SQUIBB COMPANY, priority 2016, dated 2020):
Counter-ions that a name gives are not always drawn.

The molecules below were run against ROCK2 (Homo sapiens, UniProt O75116) (assay: ROCK2 kinase inhibition assay (LABCHIP 3000 Reader, FITC peptide substrate);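 note: rho kinase reaction read by separating phosphorylated from unphosphorylated peptide on chip, with inhibition of kinase activity computed per concentration across a dose-response series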).
Sequence of ROCK2 (O75116 whole entry, species assumed): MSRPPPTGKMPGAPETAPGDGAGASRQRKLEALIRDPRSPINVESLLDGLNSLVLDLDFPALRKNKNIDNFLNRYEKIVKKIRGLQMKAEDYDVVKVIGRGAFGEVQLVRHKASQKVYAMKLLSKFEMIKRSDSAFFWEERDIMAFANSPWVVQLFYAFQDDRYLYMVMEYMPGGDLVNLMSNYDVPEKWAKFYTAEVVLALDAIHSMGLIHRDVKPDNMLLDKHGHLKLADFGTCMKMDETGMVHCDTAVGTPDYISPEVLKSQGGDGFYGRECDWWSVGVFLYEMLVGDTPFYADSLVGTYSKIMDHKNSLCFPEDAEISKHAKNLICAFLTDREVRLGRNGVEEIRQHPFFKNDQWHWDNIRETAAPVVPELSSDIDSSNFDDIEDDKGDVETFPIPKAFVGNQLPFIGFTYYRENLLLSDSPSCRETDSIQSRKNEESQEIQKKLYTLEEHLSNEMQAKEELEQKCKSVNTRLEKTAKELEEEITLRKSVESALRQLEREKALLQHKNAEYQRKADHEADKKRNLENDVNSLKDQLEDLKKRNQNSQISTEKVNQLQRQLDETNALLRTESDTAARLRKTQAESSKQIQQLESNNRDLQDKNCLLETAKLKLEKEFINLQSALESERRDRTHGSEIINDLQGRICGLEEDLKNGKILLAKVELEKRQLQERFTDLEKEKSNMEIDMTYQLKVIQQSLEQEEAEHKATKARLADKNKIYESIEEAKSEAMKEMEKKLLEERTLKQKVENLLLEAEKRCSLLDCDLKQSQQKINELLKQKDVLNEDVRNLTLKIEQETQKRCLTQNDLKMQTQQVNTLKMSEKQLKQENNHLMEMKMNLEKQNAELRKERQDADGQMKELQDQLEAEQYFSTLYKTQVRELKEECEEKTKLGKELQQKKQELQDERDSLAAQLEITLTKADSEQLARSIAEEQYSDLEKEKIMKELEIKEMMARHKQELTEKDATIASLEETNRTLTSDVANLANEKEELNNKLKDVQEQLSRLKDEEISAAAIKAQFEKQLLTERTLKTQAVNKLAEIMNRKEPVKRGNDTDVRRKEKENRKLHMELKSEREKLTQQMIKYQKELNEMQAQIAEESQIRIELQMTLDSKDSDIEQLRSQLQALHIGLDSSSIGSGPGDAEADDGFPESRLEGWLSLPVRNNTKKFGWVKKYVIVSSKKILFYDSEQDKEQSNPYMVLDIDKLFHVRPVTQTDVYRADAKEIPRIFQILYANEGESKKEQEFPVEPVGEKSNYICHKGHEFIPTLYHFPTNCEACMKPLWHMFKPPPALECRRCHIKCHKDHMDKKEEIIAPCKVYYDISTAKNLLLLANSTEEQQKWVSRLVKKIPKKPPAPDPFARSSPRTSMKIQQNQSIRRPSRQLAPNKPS

Q: Which IC50 does the source give for [2H]C([2H])([2H])n1nc(C(=O)N[C@H]2CC3(C2)C[C@H](Oc2ncccc2C(N)=O)C3)c2ccc(F)cc21 (stereo partly drawn) [Example 174, 6-fluoro-1-(^2H3)methyl-N-[(aR)-6-[(3-carbamoylpyridin-2-yl)oxy]spiro[3.3]heptan-2-yl]-1H-indazole-3-carboxamide, trifluoroacetate] here?
A: 5 to 50 nM

Q: NC(=O)c1cccnc1O[C@H]1CC2(C[C@H](NC(=O)c3nn(CC(F)F)c4cc(F)ccc34)C2)C1 (stereo partly drawn) [Example 175, N-((aR)-6-((3-carbamoylpyridin-2-yl)oxy)spiro[3.3]heptan-2-yl)-1-(2,2-difluoroethyl)-6-fluoro-1H-indazole-3-carboxamide, trifluoroacetate] was tested. Which IC50 did it give?
A: < 5 nM

Q: With [2H]C([2H])([2H])n1nc2cc(F)ccc2c1C(=O)N[C@H]1CC2(C1)C[C@H](Oc1ncccc1C(N)=O)C2 (stereo partly drawn) [Example 176, 6-fluoro-2-(^2H3)methyl-N-[(aR)-6-[(3-carbamoylpyridin-2-yl)oxy]spiro[3.3]heptan-2-yl]-2H-indazole-3-carboxamide, trifluoroacetate] as the molecule, how does the IC50 read?
A: 250 to 2500 nM

Q: How did the IC50 turn out when COc1cccc(-c2ccc3c(C(=O)N[C@H]4CC5(C4)C[C@H](Oc4ncccc4C(N)=O)C5)nn(C(F)F)c3c2)c1 (stereo partly drawn) [Example 177, N-((aR)-6-((3-carbamoylpyridin-2-yl)oxy)spiro[3.3]heptan-2-yl)-1-(difluoromethyl)-6-(3-methoxyphenyl)-1H-indazole-3-carboxamide, trifluoroacetate] was run?
A: 5 to 50 nM

Q: For NC(=O)c1cccnc1OC1CC2(CC(NC(=O)c3nnc4cc(N5CCOCC5)ccn34)C2)C1 [Example 179, N-((aR)-6-((3-carbamoylpyridin-2-yl)oxy)spiro[3.3]heptan-2-yl)-7-morpholino-[1,2,4] triazolo[4,3-a]pyridine-3-carboxamide], which IC50 is on record?
A: 5 to 50 nM

Q: With [H][C@]1(Oc2ncccc2C(N)=O)C[C@@]2(C[C@H](NC(=O)c3cc(C#N)cc(-c4cnc(C)s4)c3)C2)C1 (stereo partly drawn) [Example 180, 2-(((aR)-6-(3-cyano-5-(2-methylthiazol-5-yl)benzamido)spiro[3.3]heptan-2-yl)oxy)nicotinamide, TFA] as the molecule, how does the IC50 read?
A: < 5 nM

Q: [2H]C([2H])([2H])n1cc(-c2cc(C#N)cc(C(=O)N[C@H]3CC4(C3)C[C@H](Oc3ncccc3C(N)=O)C4)c2)cn1 (stereo partly drawn) [Example 181, 2-(((aR)-6-(3-cyano-5-(1-(methyl-d3)-1H-pyrazol-4-yl)benzamido)spiro [3.3]heptan-2-yl)oxy)nicotinamide, trifluoroacetate] was tested. Which IC50 did it give?
A: < 5 nM

Q: For Cc1nn(C)cc1-c1cc(C#N)cc(C(=O)N[C@H]2CC3(C2)C[C@H](Oc2ncccc2C(N)=O)C3)c1 (stereo partly drawn) [Example 182, 2-(((aR)-6-(3-cyano-5-(1,3-dimethyl-1H-pyrazol-4-yl)benzamido)spiro [3.3]heptan-2-yl)oxy)nicotinamide, trifluoroacetate], which IC50 is on record?
A: < 5 nM

Q: N#Cc1cc(C(=O)N[C@H]2CC3(C2)C[C@H](Oc2ncccc2C(N)=O)C3)cc(C2CC2)c1 (stereo partly drawn) [Example 183, 2-(((aR)-6-(3-cyano-5-cyclopropylbenzamido)spiro[3.3]heptan-2-yl)oxy) nicotinamide, trifluoroacetate] was tested. Which IC50 did it give?
A: 5 to 50 nM

Q: Cn1cc(-c2cc(C#N)cc(C(=O)N[C@H]3CC4(C3)C[C@H](Oc3ncccc3C(N)=O)C4)c2)c(C(F)(F)F)n1 (stereo partly drawn) [Example 184, 2-(((aR)-6-(3-cyano-5-(1-methyl-3-(trifluoromethyl)-1H-pyrazol-4-yl)benzamido)spiro[3.3]heptan-2-yl)oxy)nicotinamide, trifluoroacetate] was tested. Which IC50 did it give?
A: 5 to 50 nM

Q: For Cc1c(-c2cc(C#N)cc(C(=O)N[C@H]3CC4(C3)C[C@H](Oc3ncccc3C(N)=O)C4)c2)cnn1C (stereo partly drawn) [Example 185, 2-(((aR)-6-(3-cyano-5-(1,5-dimethyl-1H-pyrazol-4-yl)benzamido)spiro[3.3]heptan-2-yl)oxy)nicotinamide, trifluoroacetate], which IC50 is on record?
A: < 5 nM

Q: With Cc1nc2cc(-c3cc(C#N)cc(C(=O)N[C@H]4CC5(C4)C[C@H](Oc4ncccc4C(N)=O)C5)c3)ccc2s1 (stereo partly drawn) [Example 186, 2-(((aR)-6-(3-cyano-5-(2-methylbenzo[d]thiazol-5-yl)benzamido)spiro[3.3]heptan-2-yl)oxy)nicotinamide, trifluoroacetate] as the molecule, how does the IC50 read?
A: < 5 nM

Q: How did the IC50 turn out when CC(C)Cn1cc(-c2cc(C#N)cc(C(=O)N[C@H]3CC4(C3)C[C@H](Oc3ncccc3C(N)=O)C4)c2)cn1 (stereo partly drawn) [Example 187, 2-((aR)-6-(3-cyano-5-(1-isobutyl-1H-pyrazol-4-yl)benzamido)spiro [3.3]heptan-2-yl)oxy)nicotinamide, trifluoroacetate] was run?
A: < 5 nM

Q: Cc1nc(-c2ccc(C(F)(F)F)cc2)sc1-c1cc(C#N)cc(C(=O)N[C@H]2CC3(C2)C[C@H](Oc2ncccc2C(N)=O)C3)c1 (stereo partly drawn) [Example 188, 2-((aR)-6-(3-cyano-5-(4-methyl-2-(4-(trifluoromethyl)phenyl)thiazol-5-yl)benzamido)spiro[3.3]heptan-2-yl)oxy)nicotinamide, trifluoroacetate] was tested. Which IC50 did it give?
A: 250 to 2500 nM

Q: Which IC50 does the source give for N#Cc1cc(C(=O)N[C@H]2CC3(C2)C[C@H](Oc2ncccc2C(N)=O)C3)cc(-c2ccc3c(c2)CCC(=O)N3)c1 (stereo partly drawn) [Example 189, 2-((aR)-6-(3-cyano-5-(2-oxo-1,2,3,4-tetrahydroquinolin-6-yl)benzamido)spiro[3.3]heptan-2-yl)oxy)nicotinamide, trifluoroacetate] here?
A: < 5 nM

Q: How did the IC50 turn out when Cc1noc(C)c1-c1cc(C#N)cc(C(=O)N[C@H]2CC3(C2)C[C@H](Oc2ncccc2C(N)=O)C3)c1 (stereo partly drawn) [Example 190, 2-((aR)-6-(3-cyano-5-(3,5-dimethylisoxazol-4-yl)benzamido)spiro[3.3]heptan-2-yl)oxy)nicotinamide, trifluoroacetate] was run?
A: 5 to 50 nM

Q: How did the IC50 turn out when N#Cc1cc(C(=O)N[C@H]2CC3(C2)C[C@H](Oc2ncccc2C(N)=O)C3)cc(-c2ccc(C#N)nc2)c1 (stereo partly drawn) [Example 191, 2-(((aR)-6-(3-cyano-5-(6-cyanopyridin-3-yl)benzamido)spiro[3.3]heptan-2-yl)oxy)nicotinamide, trifluoroacetate] was run?
A: 5 to 50 nM

Q: Cn1ccc(-c2cc(C#N)cc(C(=O)N[C@H]3CC4(C3)C[C@H](Oc3ncccc3C(N)=O)C4)c2)cc1=O (stereo partly drawn) [Example 192, 2-(((aR)-6-(3-cyano-5-(1-methyl-2-oxo-1,2-dihydropyridin-4-yl)benzamido)spiro[3.3]heptan-2-yl)oxy)nicotinamide, trifluoroacetate] was tested. Which IC50 did it give?
A: 5 to 50 nM

Q: For N#Cc1cc(C(=O)N[C@H]2CC3(C2)C[C@H](Oc2ncccc2C(N)=O)C3)cc(-c2c[nH]nc2C(F)(F)F)c1 (stereo partly drawn) [Example 193, 2-(((aR)-6-(3-cyano-5-(3-(trifluoromethyl)-1H-pyrazol-4-yl)benzamido)spiro[3.3]heptan-2-yl)oxy)nicotinamide, trifluoroacetate], which IC50 is on record?
A: 5 to 50 nM

Q: Cn1cccc(-c2cc(C#N)cc(C(=O)N[C@H]3CC4(C3)C[C@H](Oc3ncccc3C(N)=O)C4)c2)c1=O (stereo partly drawn) [Example 194, 2-(((aR)-6-(3-cyano-5-(1-methyl-2-oxo-1,2-dihydropyridin-3-yl)benzamido)spiro[3.3]heptan-2-yl)oxy)nicotinamide, trifluoroacetate] was tested. Which IC50 did it give?
A: 5 to 50 nM

Q: How did the IC50 turn out when CS(=O)(=O)c1ccccc1-c1cc(C#N)cc(C(=O)N[C@H]2CC3(C2)C[C@H](Oc2ncccc2C(N)=O)C3)c1 (stereo partly drawn) [Example 196, 2-(((aR)-6-(5-cyano-2′-(methylsulfonyl)-[1,1′-biphenyl]-3-ylcarboxamido)spiro[3.3]heptan-2-yl)oxy)nicotinamide] was run?
A: < 5 nM

Q: With Cn1nccc1-c1cc(C#N)cc(C(=O)N[C@H]2CC3(C2)C[C@H](Oc2ncccc2C(N)=O)C3)c1 (stereo partly drawn) [Example 197, 2-(((aR)-6-(3-cyano-5-(1-methyl-1H-pyrazol-5-yl)benzamido)spiro[3.3]heptan-2-yl)oxy)nicotinamide] as the molecule, how does the IC50 read?
A: 5 to 50 nM

Q: Which IC50 does the source give for N#Cc1cc(C(=O)N[C@H]2CC3(C2)C[C@H](Oc2ncccc2C(N)=O)C3)cc(-c2cnn(C(F)F)c2)c1 (stereo partly drawn) [Example 198, 2-(((aR)-6-(3-cyano-5-(1-(difluoromethyl)-1H-pyrazol-4-yl)benzamido)spiro[3.3]heptan-2-yl)oxy)nicotinamide] here?
A: < 5 nM

Q: With [H][C@]1(Oc2ncccc2C(N)=O)C[C@@]2(C[C@H](NC(=O)c3cc(C#N)cc(-c4nc5c(s4)CNCC5)c3)C2)C1 (stereo partly drawn) [Example 199, 2-(((aR)-6-(3-cyano-5-(4,5,6,7-tetrahydrothiazolo[5,4-c]pyridin-2-yl)benzamido)spiro[3.3]heptan-2-yl)oxy)nicotinamide, 2TFA] as the molecule, how does the IC50 read?
A: 5 to 50 nM

Q: How did the IC50 turn out when CN1CCc2nc(-c3cc(C#N)cc(C(=O)N[C@H]4CC5(C4)C[C@H](Oc4ncccc4C(N)=O)C5)c3)sc2C1 (stereo partly drawn) [Example 200, 2-(((aR)-6-(3-cyano-5-(5-methyl-4,5,6,7-tetrahydrothiazolo[5,4-c]pyridin-2-yl)benzamido)spiro[3.3]heptan-2-yl)oxy)nicotinamide, bis-trifluoroacetate] was run?
A: 5 to 50 nM

Q: For Cc1nc(-c2cc(C#N)cc(C(=O)N[C@H]3CC4(C3)C[C@H](Oc3ncccc3C(N)=O)C4)c2)cs1 (stereo partly drawn) [Example 203, 2-(((aR)-6-(3-cyano-5-(2-methylthiazol-4-yl)benzamido)spiro[3.3]heptan-2-yl)oxy)nicotinamide, trifluoroacetate], which IC50 is on record?
A: 5 to 50 nM

Q: Which IC50 does the source give for COc1cccc(C(N)=O)c1OC1CC2(CC(NC(=O)c3cnn4c(C5CC5)c(OCC(C)(C)O)ccc34)C2)C1 (centres unmarked) [Example 208, N-(6-(2-carbamoyl-6-methoxyphenoxy)spiro[3.3]heptan-2-yl)-7-cyclopropyl-6-(2-hydroxy-2-methylpropoxy)pyrazolo[1,5-a]pyridine-3-carboxamide] here?
A: 250 to 2500 nM

Q: For COc1cccc(C(N)=O)c1OC1CC2(CC(NC(=O)c3cnn4cc(OCC(C)(C)O)ccc34)C2)C1 (centres unmarked) [Example 209, N-(6-(2-carbamoyl-6-methoxyphenoxy)spiro[3.3]heptan-2-yl)-6-(2-hydroxy-2-methylpropoxy)pyrazolo[1,5-a]pyridine-3-carboxamide], which IC50 is on record?
A: 250 to 2500 nM

Q: For COc1ccc(C(N)=O)c(OC2CC3(CC(NC(=O)c4cnn5cc(OCC(C)(C)O)ccc45)C3)C2)c1 (centres unmarked) [Example 210, N-(6-(2-carbamoyl-5-methoxyphenoxy)spiro[3.3]heptan-2-yl)-6-(2-hydroxy-2-methylpropoxy)pyrazolo[1,5-a]pyridine-3-carboxamide], which IC50 is on record?
A: 5 to 50 nM
